Measurements: the NIST ThermoML archive (doi:10.1016/j.jct.2016.12.029)
± gives the expanded uncertainty stated by the source.

Assay: xn = mol fraction of the nth substance listed
Conditions: Gas, Buoyancy - hydrostatic balance with magnetic suspension - one sinker

C=C(F)C(F)(F)F [2,3,3,3-tetrafluoro-1-propene] + CCC
Conditions | mass density [kg/m3]
265.46 K, 101.2 kPa, x1 = 1 | 5.404 ± 0.069
265.48 K, 207.2 kPa, x1 = 1 | 11.507 ± 0.069
265.55 K, 106.5 kPa, x1 = 0.8116 | 5.018 ± 0.062
265.56 K, 107.5 kPa, x1 = 0.583 | 4.254 ± 0.051
265.57 K, 104 kPa, x1 = 0.0906 | 2.433 ± 0.03
265.57 K, 181.7 kPa, x1 = 0.8116 | 8.775 ± 0.066
265.57 K, 198.3 kPa, x1 = 0.583 | 8.052 ± 0.056
265.57 K, 206.2 kPa, x1 = 0.0906 | 4.954 ± 0.033
265.58 K, 299.3 kPa, x1 = 0.0906 | 7.374 ± 0.037
265.59 K, 295.1 kPa, x1 = 0.583 | 12.343 ± 0.062
265.6 K, 249 kPa, x1 = 0.8116 | 12.31 ± 0.071
270.36 K, 101 kPa, x1 = 1 | 5.279 ± 0.066
270.38 K, 164.6 kPa, x1 = 1 | 8.792 ± 0.069
270.38 K, 250.3 kPa, x1 = 1 | 13.798 ± 0.07
270.4 K, 103.2 kPa, x1 = 0.2546 | 2.918 ± 0.036
270.41 K, 182.2 kPa, x1 = 0.2546 | 5.239 ± 0.039
270.42 K, 267 kPa, x1 = 0.2546 | 7.839 ± 0.042
270.44 K, 102.4 kPa, x1 = 0.0906 | 2.353 ± 0.03
270.44 K, 194.1 kPa, x1 = 0.0906 | 4.555 ± 0.033
270.44 K, 338.6 kPa, x1 = 0.0906 | 8.243 ± 0.038
270.45 K, 102.6 kPa, x1 = 0.583 | 3.972 ± 0.05
270.45 K, 215 kPa, x1 = 0.583 | 8.58 ± 0.056
270.47 K, 349 kPa, x1 = 0.583 | 14.488 ± 0.065
270.5 K, 105.1 kPa, x1 = 0.8116 | 4.852 ± 0.06
270.5 K, 182.6 kPa, x1 = 0.8116 | 8.631 ± 0.065
270.5 K, 286.6 kPa, x1 = 0.8116 | 14.015 ± 0.072
275.39 K, 106.2 kPa, x1 = 1 | 5.448 ± 0.066
275.4 K, 208.6 kPa, x1 = 1 | 11.064 ± 0.068
275.41 K, 188.7 kPa, x1 = 0.2546 | 5.334 ± 0.039
275.41 K, 306 kPa, x1 = 0.2546 | 8.898 ± 0.044
275.42 K, 303.7 kPa, x1 = 1 | 16.657 ± 0.071
275.43 K, 404.2 kPa, x1 = 0.2546 | 12.054 ± 0.052
275.45 K, 102.2 kPa, x1 = 0.583 | 3.894 ± 0.049
275.45 K, 198.4 kPa, x1 = 0.583 | 7.744 ± 0.054
275.46 K, 103.9 kPa, x1 = 0.0906 | 2.338 ± 0.029
275.46 K, 196 kPa, x1 = 0.0906 | 4.504 ± 0.031
275.46 K, 282.9 kPa, x1 = 0.0906 | 6.633 ± 0.035
275.47 K, 107.9 kPa, x1 = 0.8116 | 4.886 ± 0.059
275.47 K, 211 kPa, x1 = 0.8116 | 9.844 ± 0.065
275.47 K, 300.7 kPa, x1 = 0.583 | 12.066 ± 0.062
275.47 K, 374.9 kPa, x1 = 0.0906 | 8.996 ± 0.04
275.49 K, 325.2 kPa, x1 = 0.8116 | 15.724 ± 0.075
275.49 K, 415.1 kPa, x1 = 0.583 | 17.223 ± 0.071
280.28 K, 103.6 kPa, x1 = 1 | 5.208 ± 0.064
280.29 K, 176.6 kPa, x1 = 1 | 9.076 ± 0.066
280.29 K, 274 kPa, x1 = 1 | 14.527 ± 0.069
280.29 K, 356.2 kPa, x1 = 1 | 19.43 ± 0.072
280.31 K, 101.5 kPa, x1 = 0.2546 | 2.757 ± 0.035
280.31 K, 195.7 kPa, x1 = 0.2546 | 5.424 ± 0.038
280.31 K, 360.4 kPa, x1 = 0.2546 | 10.374 ± 0.047
280.31 K, 476.4 kPa, x1 = 0.2546 | 14.119 ± 0.054
280.32 K, 279.7 kPa, x1 = 0.2546 | 7.895 ± 0.042
280.33 K, 202 kPa, x1 = 0.583 | 7.713 ± 0.052
280.34 K, 102.8 kPa, x1 = 0.583 | 3.835 ± 0.048
280.34 K, 300.9 kPa, x1 = 0.583 | 11.781 ± 0.06
280.34 K, 401.2 kPa, x1 = 0.583 | 16.148 ± 0.069
280.35 K, 481.2 kPa, x1 = 0.583 | 19.822 ± 0.076
280.36 K, 103.6 kPa, x1 = 0.8116 | 4.599 ± 0.057
280.36 K, 106.5 kPa, x1 = 0.0906 | 2.352 ± 0.028
280.37 K, 190.7 kPa, x1 = 0.8116 | 8.666 ± 0.062
280.37 K, 207.3 kPa, x1 = 0.0906 | 4.678 ± 0.031
280.38 K, 294.7 kPa, x1 = 0.8116 | 13.792 ± 0.071
280.39 K, 315.2 kPa, x1 = 0.0906 | 7.287 ± 0.036
280.4 K, 369 kPa, x1 = 0.8116 | 17.665 ± 0.078
280.4 K, 425 kPa, x1 = 0.0906 | 10.088 ± 0.042
285.27 K, 258.8 kPa, x1 = 1 | 13.34 ± 0.067
285.28 K, 104.7 kPa, x1 = 1 | 5.162 ± 0.062
285.28 K, 164.2 kPa, x1 = 1 | 8.23 ± 0.064
285.28 K, 358.5 kPa, x1 = 1 | 19.078 ± 0.069
285.29 K, 306.8 kPa, x1 = 0.2546 | 8.517 ± 0.042
285.29 K, 414.7 kPa, x1 = 0.2546 | 11.796 ± 0.049
285.29 K, 520.3 kPa, x1 = 0.2546 | 15.183 ± 0.057
285.3 K, 104 kPa, x1 = 0.2546 | 2.771 ± 0.034
285.3 K, 204 kPa, x1 = 0.2546 | 5.541 ± 0.037
285.32 K, 104.6 kPa, x1 = 0.583 | 3.829 ± 0.047
285.32 K, 198.9 kPa, x1 = 0.583 | 7.432 ± 0.051
285.32 K, 309.1 kPa, x1 = 0.583 | 11.855 ± 0.059
285.32 K, 414.1 kPa, x1 = 0.583 | 16.308 ± 0.068
285.33 K, 524.2 kPa, x1 = 0.583 | 21.282 ± 0.078
285.35 K, 103.9 kPa, x1 = 0.0906 | 2.256 ± 0.028
285.35 K, 107.3 kPa, x1 = 0.8116 | 4.677 ± 0.056
285.35 K, 203.4 kPa, x1 = 0.8116 | 9.079 ± 0.062
285.36 K, 205.6 kPa, x1 = 0.0906 | 4.552 ± 0.03
285.37 K, 298.4 kPa, x1 = 0.0906 | 6.733 ± 0.034
